Results published in patent publication EP3720857B1, “2-OXO-5H-CHROMENO[4,3-B]PYRIDINES FOR USE IN THE TREATMENT OF HEPATITIS B” (Galapagos NV, priority 2017, dated 2019).

What was measured:
HBV [1] = assay: Humanized mouse model of HBV infection in human-murine liver chimeric mice; type: in vivo, FRG KO mice; parameters: unit not given here; conditions: n=6
Description: (asterisks), the group treated with illustrative compound 46 at 3 mg/kg p.o. q.d. (asterisks), the group treated with illustrative compound 46 at 30 mg/kg p.o. q.d. (filled squares), the group treated with illustrative compound 44 at 1 mg/kg p.o. q.d. (crosses), and the group treated with illustrative compound 44 at 10 mg/kg p.o. q.d. (filled circles).
Six to ten weeks old male or female FRG KO mice (Fah-/-/Rag2-/-/Il2rg-/-triple knock-out - Yecuris Corporation P.O. Box 4645, Tualatin, OR 97062, USA) are used. They are provided with filtered tap water and standard chow ad libitum and maintained at 22 ± 2°C in 55 ± 10% humidity on a 12h light/dark cycle.
Each mouse is repopulated by intra splenic injection of 1 to 2 10^6 human hepatocytes (Life Technologies ref HMCS2SA). To allow a progressive and efficacious repopulation, drinking water is regularly supplemented with Nitisinone (Yecuris, lot TNAK0002). The repopulation rate is controlled by hAlb dosage in serum (Euromedex ref E88-129). About 3 to 4 months after the human hepatocyte injection, mice for which repopulation is successful reach an hAlb level >1g/L and can be used for HBV infection.
The test compounds for p.o administration are formulated in Solutol at 2% (Sigma : Kolliphor hS15 12966-1kg lot BCBM0868V) and methylcellulose 0.5% at 98%
Each mouse is injected with HBV-2015 batch ([…]) with an inoculum of 1.38 10^8 GE HBV (0.2 mL) via tail vein.
Six to seven weeks after infection, blood is sampled under isoflurane anesthesia by retro-orbital puncture. HBsAg is dosed in serum by Elisa assay (Immunodiagnostic, ref HBSAG EIA). HBV DNA level is measured in the mice serum using qPCR (SYBR green). Only mice reaching HBsAg level above 1000UI/mL are kept and randomized.
Treatment is given for 5 weeks according to body weight.
Body weight is recorded every week.
Between Day 7 and Day 11, a steady state PK is performed with sampling of blood under isoflurane anesthesia by retro-orbital puncture at T=0, 1h, 3h, 6h post treatment. Plasma are frozen before decontamination with ethanol absolute 80% and transfer to bioanalysis laboratory for compound dosage by LCMS-MS.
At […], D8, D15, D22 and D28, blood is sampled under isoflurane anesthesia by retro-orbital puncture. To follow compounds efficacy, HBsAg is dosed in serum by Elisa assay (Immunodiagnostic, ref HBSAG EIA) and HBV DNA level is measured in serum using qPCR (SYBR green).
After 5 weeks of treatment, mice are euthanized 2 hours after the last dosing for liver and blood collection.
In blood HBsAg is measured by Elisa assay, HBV DNA by qPCR and compound level by LCMS-MS.
In liver HBV DNA is measured by qPCR, compound level by LCMS-MS, pgRNA by RT-qPCR, HBcAg by immunohistochemistry (Dako ref B0586).
When subjected to this protocol, the following results for illustrative compounds of the invention are obtained. Table VII. Infected mice HBsAg blood level variation

HBV [2] = assay: as above; type: in vivo, FRG KO mice; parameters: unit not given here; conditions: D1, mean, n=6

COCCCOc1cc2c(cc1F)-c1c(cc(C(=O)O)c(=O)n1C1CC1)[C@H](C(C)C)O2 [Compound 44, (5S)-1-cyclopropyl-9-fluoro-5-isopropyl-8-(3-methoxypropoxy)-2-oxo-5H-chromeno[4,3-b]pyridine-3-carboxylic acid]
Infected mice HBsAg blood level (HBV [1]; 1 mg/kg p.o q.d, D1, mean): 4.5
Infected mice HBsAg blood level (HBV [1]; 1 mg/kg p.o q.d, D8, mean): 3.6
Infected mice HBsAg blood level (HBV [1]; 1 mg/kg p.o q.d, D15, mean): 3.5
Infected mice HBsAg blood level (HBV [1]; 1 mg/kg p.o q.d, D22, mean): 3.5
Infected mice HBsAg blood level (HBV [1]; 1 mg/kg p.o q.d, D28, mean): 3.6
Infected mice HBsAg blood level (HBV [1]; 10 mg/kg p.o q.d, D1, mean): 4.4
Infected mice HBsAg blood level (HBV [1]; 10 mg/kg p.o q.d, D8, mean): 3.4
Infected mice HBsAg blood level (HBV [1]; 10 mg/kg p.o q.d, D15, mean): 3.5
Infected mice HBsAg blood level (HBV [1]; 10 mg/kg p.o q.d, D22, mean): 3.4
Infected mice HBsAg blood level (HBV [1]; 10 mg/kg p.o q.d, D28, mean): 3.4

COCCCOc1cc2c(cc1Cl)-c1c(cc(C(=O)O)c(=O)n1C1CC1)[C@H](C1(C)COC1)O2 [Compound 46, (5R)-9-chloro-1-cyclopropyl-8-(3-methoxypropoxy)-5-(3-methyloxetan-3-yl)-2-oxo-5H-chromeno[4,3-b]pyridine-3-carboxylic acid]
Infected mice HBsAg blood level (HBV [2]; 0.3 mg/kg p.o q.d): 4.4
Infected mice HBsAg blood level (HBV [2]; 3 mg/kg p.o q.d): 4.4
Infected mice HBsAg blood level (HBV [1]; 0.3 mg/kg p.o q.d, D8, mean): 3.7
Infected mice HBsAg blood level (HBV [1]; 0.3 mg/kg p.o q.d, D15, mean): 3.8
Infected mice HBsAg blood level (HBV [1]; 0.3 mg/kg p.o q.d, D22, mean): 3.9
Infected mice HBsAg blood level (HBV [1]; 0.3 mg/kg p.o q.d, D28, mean): 3.7
Infected mice HBsAg blood level (HBV [1]; 3 mg/kg p.o q.d, D8, mean): 3.4
Infected mice HBsAg blood level (HBV [1]; 3 mg/kg p.o q.d, D15, mean): 3.4
Infected mice HBsAg blood level (HBV [1]; 3 mg/kg p.o q.d, D22, mean): 3.4
Infected mice HBsAg blood level (HBV [1]; 3 mg/kg p.o q.d, D28, mean): 3.4
Infected mice HBsAg blood level (HBV [1]; 30 mg/kg p.o q.d, D1, mean): 4.4
Infected mice HBsAg blood level (HBV [1]; 30 mg/kg p.o q.d, D8, mean): 3.5
Infected mice HBsAg blood level (HBV [1]; 30 mg/kg p.o q.d, D15, mean): 3.5
Infected mice HBsAg blood level (HBV [1]; 30 mg/kg p.o q.d, D22, mean): 3.4
Infected mice HBsAg blood level (HBV [1]; 30 mg/kg p.o q.d, D28, mean): 3.5
